Measured values published in patent US20110294778A1, “HEPATITIS C INHIBITOR COMPOUNDS” (priority 2009, published 2011).
Where two headings read alike, the source gives them in different places.

How the values were obtained:
[1] = system: HCV genotype 1b (Con-1) subgenomic replicon with NS3 resistance mutation D168V in Huh-7 cells; test: HCV replicon RNA replication assay (NS3 protease variants), genotype 1b D168V; type: cell-based; settings: Hepatitis C virus
[2] = system: HCV genotype 1a (strain H77) subgenomic replicon with NS3 resistance mutation R155K in Huh-7 cells; test: HCV replicon RNA replication assay (NS3 protease variants), genotype 1a R155K; type: cell-based; settings: Hepatitis C virus
[3] = Huh-7, 72 h, read-out: D168V 1b EC50 (nM)
[4] = Huh-7, 72 h, read-out: R155K 1a EC50 (nM)

Row | Structure (SMILES) | EC50 [1, 3] [nM] | EC50 [2, 4] [nM] | EC50 ([1]; Huh-7, read-out: D168V 1b Ec50 (nM)) [nM] | EC50 ([2]; Huh-7, read-out: R155K 1a Ec50 (nM)) [nM]
1 | COc1ccc2c(O[C@@H]3C[C@H]4C(=O)N[C@]5(C(=O)NS(=O)(=O)C6(C)CC6)C[C@H]5/C=C\CCCCC[C@H](NC(=O)c5ccc(C)s5)C(=O)N4C3)cc(OC3CC3)nc2c1C [Compound 1012, (2R,6S,12Z,13aS,14aR,16aS)-2-{[2-(cyclopropyloxy)-7-methoxy-8-methylquinolin-4-yl]oxy}-N-[(1-methylcyclopropyl)sulfonyl]-6-{[(5-methylthiophen-2-yl)carbonyl]amino}-5,16-dioxo-1,2,3,6,7,8,9,10,11,13a,14,15,16,16a-tetradecahydrocyclopropa[e]pyrrolo[1,2-a][1,4]diazacyclopentadecine-14a(5H)-carboxamide] | 0.26 | 5.6 |  | 
2 | COc1ccc2c(O[C@@H]3C[C@H]4C(=O)N[C@]5(C(=O)NS(=O)(=O)C6(C)CC6)C[C@H]5/C=C\CCCCC[C@H](NC(=O)c5ccc(C)s5)C(=O)N4C3)cc(OC(C)C)nc2c1C [Compound 1004, (2R,6S,12Z,13aS,14aR,16aS)-2-{[7-methoxy-8-methyl-2-(propan-2-yloxy)quinolin-4-yl]oxy}-N-[(1-methylcyclopropyl)sulfonyl]-6-{[(5-methylthiophen-2-yl)carbonyl]amino}-5,16-dioxo-1,2,3,6,7,8,9,10,11,13a,14,15,16,16a-tetradecahydrocyclopropa[e]pyrrolo[1,2-a][1,4]diazacyclopentadecine-14a(5H)-carboxamide] | 0.22 | 2.8 |  | 
3 | COc1ccc2c(O[C@@H]3C[C@H]4C(=O)N[C@]5(C(=O)NS(=O)(=O)C6CC6)C[C@H]5/C=C\CCCCC[C@H](NC(=O)c5ccn(C(F)F)n5)C(=O)N4C3)cc(OC(C)C)nc2c1C [Compound 1027, (2R,6S,12Z,13aS,14aR,16aS)-N-(cyclopropylsulfonyl)-6-({[1-(difluoromethyl)-1H-pyrazol-3-yl]carbonyl}amino)-2-{[7-methoxy-8-methyl-2-(propan-2-yloxy)quinolin-4-yl]oxy}-5,16-dioxo-1,2,3,6,7,8,9,10,11,13a,14,15,16,16a-tetradecahydrocyclopropa[e]pyrrolo[1,2-a][1,4]diazacyclopentadecine-14a(5H)-carboxamide] | 0.35 | 8.4 |  | 
4 | COc1ccc2c(O[C@@H]3C[C@H]4C(=O)N[C@]5(C(=O)NS(=O)(=O)C6CC6)C[C@H]5/C=C\CCCCC[C@H](NC(=O)c5ccn(CC(=O)N(C)C)n5)C(=O)N4C3)cc(OC(C)C)nc2c1C [Compound 1002, (2R,6S,12Z,13aS,14aR,16aS)-N-(cyclopropylsulfonyl)-6-[({1-[2-(dimethylamino)-2-oxoethyl]-1H-pyrazol-3-yl}carbonyl)amino]-2-{[7-methoxy-8-methyl-2-(propan-2-yloxy)quinolin-4-yl]oxy}-5,16-dioxo-1,2,3,6,7,8,9,10,11,13a,14,15,16,16a-tetradecahydrocyclopropa[e]pyrrolo[1,2-a][1,4]diazacyclopentadecine-14a(5H)-carboxamide] | 3 | 2.6 |  | 
5 | COc1ccc2c(O[C@@H]3C[C@H]4C(=O)N[C@]5(C(=O)NS(=O)(=O)C6(C)CC6)C[C@H]5/C=C\CCCCC[C@H](NC(=O)c5ccn(C(F)F)n5)C(=O)N4C3)cc(OC(C)C)nc2c1C [Compound 1018, (2R,6S,12Z,13aS,14aR,16aS)-6-({[1-(difluoromethyl)-1H-pyrazol-3-yl]carbonyl}amino)-2-{[7-methoxy-8-methyl-2-(propan-2-yloxy)quinolin-4-yl]oxy}-N-[(1-methylcyclopropyl)sulfonyl]-5,16-dioxo-1,2,3,6,7,8,9,10,11,13a,14,15,16,16a-tetradecahydrocyclopropa[e]pyrrolo[1,2-a][1,4]diazacyclopentadecine-14a(5H)-carboxamide] | 0.14 | 2.4 |  | 
6 | CCn1ccc(C(=O)N[C@H]2CCCCC/C=C\[C@@H]3C[C@@]3(C(=O)NS(=O)(=O)C3(C)CC3)NC(=O)[C@@H]3C[C@@H](Oc4cc(OC(C)C)nc5c(C)c(OC)ccc45)CN3C2=O)n1 [Compound 1019, (2R,6S,12Z,13aS,14aR,16aS)-6-{[(1-ethyl-1H-pyrazol-3-yl)carbonyl]amino}-2-{[7-methoxy-8-methyl-2-(propan-2-yloxy)quinolin-4-yl]oxy}-N-[(1-methylcyclopropyl)sulfonyl]-5,16-dioxo-1,2,3,6,7,8,9,10,11,13a,14,15,16,16a-tetradecahydrocyclopropa[e]pyrrolo[1,2-a][1,4]diazacyclopentadecine-14a(5H)-carboxamide] | 0.16 | 0.88 |  | 
7 | COc1ccc2c(C[C@H]3CC4C(=O)N(C)CCCC/C=C\[C@H]5C[C@]5(C(=O)NS(=O)(=O)C5CC5)NC(=O)[C@@H]4C3)cc(-c3nc(C(C)C)cs3)nc2c1C (some centres unmarked) [reference compound] |  |  | 4400 | 300
8 | COc1ccc2c(O[C@@H]3C[C@H]4C(=O)N[C@]5(C(=O)NS(=O)(=O)C6CC6)C[C@H]5/C=C\CCCCC[C@H](NC(=O)c5ccno5)C(=O)N4C3)cc(OC(C)C)nc2c1C [Compound 1032, (2R,6S,12Z,13aS,14aR,16aS)-N-(cyclopropylsulfonyl)-2-{[7-methoxy-8-methyl-2-(propan-2-yloxy)quinolin-4-yl]oxy}-6-[(1,2-oxazol-5-ylcarbonyl)amino]-5,16-dioxo-1,2,3,6,7,8,9,10,11,13a,14,15,16,16a-tetradecahydrocyclopropa[e]pyrrolo[1,2-a][1,4]diazacyclopentadecine-14a(5H)-carboxamide] | 0.58 | 7.8 |  | 
9 | CCOc1cc(O[C@@H]2C[C@H]3C(=O)N[C@]4(C(=O)NS(=O)(=O)C5(C)CC5)C[C@H]4/C=C\CCCCC[C@H](NC(=O)c4ccn(CC(F)(F)F)n4)C(=O)N3C2)c2ccc(OC)c(C)c2n1 [Compound 1029, (2R,6S,12Z,13aS,14aR,16aS)-2-[(2-ethoxy-7-methoxy-8-methylquinolin-4-yl)oxy]-N-[(1-methylcyclopropyl)sulfonyl]-5,16-dioxo-6-({[1-(2,2,2-trifluoroethyl)-1H-pyrazol-3-yl]carbonyl}amino)-1,2,3,6,7,8,9,10,11,13a,14,15,16,16a-tetradecahydrocyclopropa[e]pyrrolo[1,2-a][1,4]diazacyclopentadecine-14a(5H)-carboxamide] | 0.37 | 6 |  | 
10 | Cc1ccc(C(=O)N[C@H]2CCCCC/C=C\[C@@H]3C[C@@]3(C(=O)NS(=O)(=O)C3CC3)NC(=O)[C@@H]3C[C@@H](Oc4cc(OC(C)C)nc5c(C)c(O)ccc45)CN3C2=O)s1 [Compound 1036, (2R,6S,12Z,13aS,14aR,16aS)-N-(cyclopropylsulfonyl)-2-{[7-hydroxy-8-methyl-2-(propan-2-yloxy)quinolin-4-yl]oxy}-6-{[(5-methylthiophen-2-yl)carbonyl]amino}-5,16-dioxo-1,2,3,6,7,8,9,10,11,13a,14,15,16,16a-tetradecahydrocyclopropa[e]pyrrolo[1,2-a][1,4]diazacyclopentadecine-14a(5H)-carboxamide] | 1.3 | 3.2 |  | 
